# Reference: patent US20180104174A1, “Cosmetic Use of a Diospyros Mespiliformis Extract Alone or in Combination with Other Active Agents Such as an Anti-Pollutant” (Laboratoires Clarins, priority 2015, published 2018)
# Assays:
# Assay type in all cases: cell-based
# [1] = tested on: cell reactive oxygen species (ROSs) in normal human keratinocytes; assay: Mitoread AntiOx cROS: cell ROS production after H2O2 stress
# Excerpt: The objective of this study is the characterization of the antioxidant property of a Sanicula europea extract by evaluating the parameters of the redox state after induction of an oxidative stress by hydrogen peroxide (H2O2) in primary cultures of normal human keratinocytes. The Mitosafe® technology makes it possible to explore the antioxidant effects of active agents at the mitochondrial level. This technology consists of the integrated study of mitochondrial functions in living cells by multiplexed measurement of parameters such as cell viability, production of cell and mitochondrial oxygen free radicals, evaluation of antioxidant defenses. These tests in 96-well plates are carried out on primary cultures of human epidermal cells. The Mitoread AntiOx cROS methodology consists of the quantification of the antioxidant activity of the ingredients toward cell reactive oxygen species (ROSs) using a fluorescent label. […] After washing, the cells were co-incubated with the antioxidant reference compound, […] Trolox, or the extracts, at concentrations determined to be non-cytotoxic, in the presence of the pro-oxidizing reference compound, 100 μM H2O2. The cell ROS production was immediately recorded for 60 minutes. The fluorescence is recorded every five minutes using a microplate reader (Varioskan-Thermo). […]
# [2] = tested on: total glutathione (GSH+GSSG) in normal human keratinocytes; assay: Mitoread RedOx GSHtot: total glutathione level after H2O2 stress
# Excerpt: (§1) The objective of this study is the characterization of the antioxidant property of a Sanicula europea extract by evaluating the parameters of the redox state after induction of an oxidative stress by hydrogen peroxide (H2O2) in primary cultures of normal human keratinocytes. The Mitosafe® technology makes it possible to explore the antioxidant effects of active agents at the mitochondrial level. This technology consists of the integrated study of mitochondrial functions in living cells by multiplexed measurement of parameters such as cell viability, production of cell and mitochondrial oxygen free radicals, evaluation of antioxidant defenses. These tests in 96-well plates are carried out on primary cultures of human epidermal cells. The Mitoread RedOx GSHtot methodology consists of the quantification of the total glutathione level (GSH+GSSG). The cells were pre-incubated at 37° C. for 60 minutes with the reference antioxidant, resveratrol 1 μM, or the extract at the predetermined concentrations. The cells were treated with the reference pro-oxidizing compound, hydrogen peroxide H2O2 at 100 μM, for 60 minutes. Immediately after, the cell extracts were prepared and stored at −80° C. The total glutathione level was measured by means of a fluorometric and enzymatic method using a microplate reader (Varioskan-Thermo). All the extracts were tested in triplicate.
# [3] = tested on: mitochondrial reactive oxygen species (ROSs) in normal human keratinocytes; assay: Mitoread AntiOx mtROS: mitochondrial ROS production after H2O2 stress
# Excerpt: The objective of this study is the characterization of the antioxidant property of a Sanicula europea extract by evaluating the parameters of the redox state after induction of an oxidative stress by hydrogen peroxide (H2O2) in primary cultures of normal human keratinocytes. The Mitosafe® technology makes it possible to explore the antioxidant effects of active agents at the mitochondrial level. This technology consists of the integrated study of mitochondrial functions in living cells by multiplexed measurement of parameters such as cell viability, production of cell and mitochondrial oxygen free radicals, evaluation of antioxidant defenses. These tests in 96-well plates are carried out on primary cultures of human epidermal cells. The Mitoread AntiOx mtROS methodology consists of the quantification of the antioxidant activity of the ingredients toward mitochondrial reactive oxygen species (ROSs) using a fluorescent label. The cells were pre-incubated at 37° C. for 60 minutes with the reference antioxidant, resveratrol 1 μM, or the active ingredients at the predetermined concentrations. Next, they were incubated with the fluorescent probe at 37° C. for 30 minutes, as a replacement for the antioxidant compounds. […] The mitochrondrial ROS production was immediately recorded for 60 minutes. The fluorescence is recorded every five minutes using a microplate reader (Varioskan-Thermo). […]
# [4] = tested on: cell superoxide dismutase (SOD) in normal human keratinocytes; assay: Mitoread RedOx c/mtSOD: cell SOD activity after H2O2 stress
# Excerpt: as §1, with “Mitoread RedOx c/mtSOD methodology consists” for “Mitoread RedOx GSHtot methodology consists”, “of the cell and mitochondrial SOD activities. The cells” for “of the total glutathione level (GSH+GSSG). The cells”, “antioxidant, resveratrol at 1 μM,” for “antioxidant, resveratrol 1 μM,”, “or the active ingredients at the” for “or the extract at the”, “at 100 μM for 60” for “at 100 μM, for 60”, “C. The enzymatic activities were measured by” for “C. The total glutathione level was measured by”
# [5] = tested on: mitochondrial superoxide dismutase (SOD) in normal human keratinocytes; assay: Mitoread RedOx c/mtSOD: mitochondrial SOD activity after H2O2 stress
# Excerpt: as §1, with “Mitoread RedOx c/mtSOD methodology consists” for “Mitoread RedOx GSHtot methodology consists”, “of the cell and mitochondrial SOD activities. The cells” for “of the total glutathione level (GSH+GSSG). The cells”, “antioxidant, resveratrol at 1 μM,” for “antioxidant, resveratrol 1 μM,”, “or the active ingredients at the” for “or the extract at the”, “at 100 μM for 60” for “at 100 μM, for 60”, “C. The enzymatic activities were measured by” for “C. The total glutathione level was measured by”
compound,measurement,setting,value
Cc1c(C)c2c(c(C)c1O)CCC(C)(C(=O)O)O2 (stereo not shown) [Trolox],reduction of the overproduction of cell ROSs induced by H2O2,"[1]; Trolox at 10 μm, p<0.001",1.7 times
"OO [H2O2, hydrogen peroxide]",increase in the total glutathione level compared with the nontreated cells,"[2]; H2O2 at 100 μM, p=0.044",~2.9 times
same,increase in mitochondrial production of ROSs relative to the nontreated cells (factor),[3]; 100 μM H2O2,9.4
same,increase of the cell ROS production level compared with the nontreated cells,[1]; 100 μM H2O2,7.4 times
same,decrease in the cell SOD activity compared with the nontreated cells,"[4]; H2O2 100 μM, non-significant trend, p=0.075",~30%
same,increase in the mitochondrial SOD activity compared with the nontreated cells,"[5]; H2O2 100 μM, p=0.006",~211%
Oc1ccc(C=Cc2cc(O)cc(O)c2)cc1 [resveratrol],reduction of the total glutathione level after treatment with H2O2,"[2]; pre-incubation at 1 μM, p=0.006",94%
same,reduction of the overproduction of mitochondrial ROSs induced by H2O2,"[3]; 1 μM, p=0.013",~1.3 times
same,increase in the cell SOD activity in response to H2O2 exposure,"[4]; 1 μM, p=0.036",~40%
same,reduction of the activity of the mitochondrial SOD induced by H2O2,"[5]; 1 μM, p=0.021",~66%
